Experimental data from patent publication US20030124127A1, “Targeting leukemia cells” (priority 2001, published 2003).

Key:
NB4 cells [1] = assay: ATRA-induced NB4 cell differentiation (morphology, CD11B/CD16 flow cytometry, NBT reduction test); assay type: cell-based, human; conditions: 1 μM ATRA
Procedure: (§1) Leukemia cell lines. NB4 cells were a gift (Dr. James R. Downing, St. Jude Children's Research Hospital) and other leukemia cell lines (K562, U937 and HL-60) were purchased from ATCC (Manassas, Va.). All leukemia cell lines were cultured in RPMI 1640 medium plus 10% fetal calf serum. Cells (1×10^6) were treated with or without 1 μM ATRA (Sigma, St. Louis, Mo.) for 12, 24, 48, 72, and 96 hours at 37° C. in a 5% CO2 incubator in darkness. All experiments were repeated three times.
(§2) Assessment of cell differentiation. ATRA-induced NB4 cell differentiation was evaluated by morphological assessment, by flow cytometry for expression of cell surface antigens related to granulocytic differentiation and maturation such as CD11B/CD18-integrins (Gahmberg C G, Curr. Opin. Cell Biol. 9: 643-650, 1997) and by the nitroblue tetrazolium (NBT) reduction test, which measures myelocyte maturity (Idres N et al., Cancer Res. 61: 700-705, 2001). For cell cycle analysis, the cells were stained with propidium iodide (PI) and analyzed by a fluorescence-activated cell sorting analysis.

NB4 cells [2] = assay: Cell cycle analysis of ATRA-treated NB4 cells (propidium iodide, flow cytometry); assay type: cell-based, human; conditions: 1 μM ATRA, 12-96 hrs, PI staining
Procedure: as §1, §2

NB4 cells [3] = assay: RT-PCR analysis of CD52 mRNA in NB4 cells; assay type: cell-based, human; conditions: ATRA 12-96 hr, not detectable in untreated cells
Procedure: (§3) Reverse transcriptase (RT)-PCR. NB4 cells were cultured and treated with or without ATRA as described above. Some assays were performed using other cell lines including the erythroblastic leukemia cell line K562, the monocytic leukemia cell line U937 and the HL-60 cell line, a human myeloblastic leukemia cell line lacking the t(15; 17) translocation. Total RNA was isolated from the cells and used for CD52 cDNA synthesis by RT-PCR. The cDNA was synthesized in a 20 μl reaction mixture containing 5 μg RNA, 5 mM dNTP, 0.1 μg random primers and 200 U reverse transcriptase, and the mixture was incubated at 42° C. for 1 hr. The cDNA was amplified for 30 cycles with denaturation at 94° C. for 30 seconds, annealing at 56° C. for 30 seconds and extension at 72° C. for 1 min. Amplified products were sequenced and confirmed by comparison with sequence data from GenBank.

NB4 cells [4] = assay: Western blot analysis of CD52 protein in NB4 cells; assay type: cell-based, human; conditions: ATRA-treated vs untreated
Procedure: Western blot analysis. Cell lysates from control and ATRA-treated NB4 cells were separated on a 4%-20% gradient SDS-polyacrylamide gel and then transferred to PVDF membrane (Millipore, Bedford, Mass.) using a semidry electroblot chamber. The membrane was blocked overnight with 5% dry-milk in Tris-buffered saline and then incubated with anti-CD52 antibody (Serotec, Inc., Raleigh, N.C.) for 1 hour at room temperature. The binding of primary antibody was detected by using peroxidase-coupled second antibody (Sigma). Bound peroxidase was detected by the Super Signal Substrate (Pierce, Rockford, Ill.).

[5] = test system: monocytic leukemia cell line U937; assay: Cell specificity of CD52 induction by ATRA, flow cytometry, U937; assay type: cell-based; conditions: U937, ATRA 96 hours
Procedure: as §1
(§4) Flow cytometry. APL cells were treated as described above with 1 μM of ATRA for 24, 48, 72, and 96 hrs, and cell differentiation was evaluated by changes in cell morphology, CD11B and CD18 expression, and the NBT reduction test. ATRA treated cells (1×10^6) were stained with CD18-FITC (Becton Dickinson Biosciences San Jose, Calif.), CD11B-PE, and CD52-FITC antibodies (both from Serotec) following manufacturer's instructions. […] Samples were analyzed in triplicate.
(§5) Cell specificity of CD52 expression induction by ATRA. To determine the cell specificity of ATRA-induced CD52 expression, other leukemia cell lines were tested and compared with NB4 under assay conditions used for the NB4 cells.

[6] = test system: erythroblastic leukemia line K562; assay: Cell specificity of CD52 induction by ATRA, flow cytometry, K562; assay type: cell-based; conditions: K562, ATRA 96 hours
Procedure: as §1, §4, §5

HL-60 cells = assay: Cell specificity of CD52 induction by ATRA, flow cytometry, HL-60; assay type: cell-based, human; conditions: HL-60, lacking t(15;17), ATRA 96 hours
Procedure: as §1
as §3, with “The cDNA was amplified for 30 cycles with denaturation at 94° C. for 30 seconds, annealing at 56° C. for 30 seconds and extension at 72° C. for 1 min. Amplified products were sequenced and confirmed by comparison with sequence data from GenBank.” left out
Flow cytometry. APL cells were treated as described above with 1 μM of ATRA for 24, 48, 72, and 96 hrs, and cell differentiation was evaluated by changes in cell morphology, CD11B and CD18 expression, and the NBT reduction test. […] Samples were analyzed in triplicate. […]

newly diagnosed APL = conditions: ATRA therapy; cited from earlier work
NB4 cells [7] = assay: cDNA microarray analysis of ATRA-induced NB4 cell gene expression; conditions: 96 hr
NB4 cells [8] = assay: Flow cytometry of CD52, CD11B, CD18 surface expression in NB4 cells
[9] = cited from earlier work
[10] = test system: normal and malignant lymphocytes; conditions: clinical studies; cited from earlier work

CC1=C(/C=C/C(C)=C/C=C/C(C)=C/C(=O)O)C(C)(C)CCC1 [ATRA, all-trans-retinoic acid]
maximal differentiation (CD11B+ and NBT+ cells) (NB4 cells [1]; 24 to 96 hrs and later): 85% | morphologic change in NB4 cells (NB4 cells [1]; end of 24 hrs): No obvious morphologic change | CD16 expression (NB4 cells [1]; flow cytometry): failed to express CD16 | S-phase cells (NB4 cells [2]): decrease of S-phase cells | expression of CD52 mRNA (NB4 cells [3]): rapidly induced | CD52 protein bands of 21-28 kDa (NB4 cells [4]): only detected in ATRA-treated cells | expression of CD11B [5]: slightly increased | expression of CD52 [5]: did not affect | CD11B expression [6]: did not induce | CD52 expression [6]: did not induce | CD52 up-regulation (HL-60 cells): not up-regulated | complete remission of patients (newly diagnosed APL): up to 85% | CD52 mRNA expression, fold over control (NB4 cells [7]; 1 μM ATRA, peak): 6.49 fold | expression of gene gf206—339D4, fold of control (NB4 cells [7]; ATRA): more than 58 fold | maximal CD52 surface expression (NB4 cells [8]; 1 μM ATRA, 48 to 96 hr): ~90% | cell population co-expressing CD11B and CD52 (NB4 cells [8]; 96 hr of ATRA exposure): approximately 80% | cells expressing only CD11B (NB4 cells [8]; 96 hr of ATRA exposure): approximately 10% | cells expressing only CD52 (NB4 cells [8]; 96 hr of ATRA exposure): approximately 5% | up-regulation of both CD11B and CD52 (NB4 cells [8]; NB4, ATRA 96 hours): robust up-regulation

CC1=C(/C=C/C(C)=C/C=C/C(C)=C/CO)C(C)(C)CCC1 [retinol]
solubility in ethanol, methanol, ether, fats, and oil [9]: soluble | solubility in water or aqueous salt solutions [9]: practically insoluble

CAMPATH-1H: A humanized anti-CD52 monoclonal antibody
depletion of normal and malignant lymphocytes in vivo [10]: extremely effective
